From PubChem BioAssay (NCI)
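Cultured in 96-well plates, cells were exposed to test compound for 48 hours across five concentrations. Abbreviation: GI50, concentration required for 50% inhibition of growth. TGI marks complete inhibition of growth.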

Tests used:
Assay in all cases: NCI anticancer screen, dose series, 48 h
MDA-MB-468 breast = test system: MDA-MB-468 breast
MDA-MB-435 = test system: MDA-MB-435
SNB-19 CNS = test system: SNB-19 CNS
MDA-MB-231 breast = test system: MDA-MB-231 breast
UACC-62 melanoma = test system: UACC-62 melanoma
TK-10 renal = test system: TK-10 renal
SF-295 CNS = test system: SF-295 CNS
SF-268 CNS = test system: SF-268 CNS
IGROV1 ovarian = test system: IGROV1 ovarian
MCF7 breast = test system: MCF7 breast
RXF 393 renal = test system: RXF 393 renal
UACC-257 melanoma = test system: UACC-257 melanoma
SF-539 CNS = test system: SF-539 CNS
HCT-116 colon = test system: HCT-116 colon
SK-MEL-28 melanoma = test system: SK-MEL-28 melanoma
LOX IMVI melanoma = test system: LOX IMVI melanoma
HCT-15 colon = test system: HCT-15 colon
SW-620 colon = test system: SW-620 colon
MALME-3M melanoma = test system: MALME-3M melanoma
HT29 colon = test system: HT29 colon
SNB-75 CNS = test system: SNB-75 CNS
SN12C renal = test system: SN12C renal
ACHN renal = test system: ACHN renal
CCRF-CEM leukemia = test system: CCRF-CEM leukemia
DU-145 prostate = test system: DU-145 prostate
U251 CNS = test system: U251 CNS
T-47D breast = test system: T-47D breast
COLO 205 colon = test system: COLO 205 colon
SK-OV-3 ovarian = test system: SK-OV-3 ovarian
BT-549 breast = test system: BT-549 breast
M14 melanoma = test system: M14 melanoma
NCI-H23 lung = test system: NCI-H23 lung
A498 renal = test system: A498 renal
OVCAR-5 ovarian = test system: OVCAR-5 ovarian
SK-MEL-5 melanoma = test system: SK-MEL-5 melanoma
SR leukemia = test system: SR leukemia
K-562 leukemia = test system: K-562 leukemia
NCI-H460 lung = test system: NCI-H460 lung
PC-3 prostate = test system: PC-3 prostate
HOP-62 NSCLC = test system: HOP-62 NSCLC
NCI-H522 lung = test system: NCI-H522 lung
OVCAR-8 ovarian = test system: OVCAR-8 ovarian
RPMI-8226 leukemia = test system: RPMI-8226 leukemia
HS 578T breast = test system: HS 578T breast
786-0 renal = test system: 786-0 renal
HL-60(TB) leukemia = test system: HL-60(TB) leukemia
OVCAR-4 ovarian = test system: OVCAR-4 ovarian
UO-31 renal = test system: UO-31 renal
CAKI-1 renal = test system: CAKI-1 renal
HCC-2998 colon = test system: HCC-2998 colon
MOLT-4 leukemia = test system: MOLT-4 leukemia
NCI-H226 lung = test system: NCI-H226 lung
OVCAR-3 ovarian = test system: OVCAR-3 ovarian
HOP-92 NSCLC = test system: HOP-92 NSCLC
EKVX NSCLC = test system: EKVX NSCLC
A549 NSCLC = test system: A549 NSCLC
SK-MEL-2 melanoma = test system: SK-MEL-2 melanoma
KM12 colon = test system: KM12 colon

O=C(/C=C/c1ccco1)c1nc2ccccc2n1Cc1ccc(Br)cc1
GI50 (MDA-MB-468 breast): 7.31 µM | TGI (MDA-MB-468 breast): 26.9 µM | GI50 (MDA-MB-435): 15 µM | TGI (MDA-MB-435): 36.9 µM | GI50 (SNB-19 CNS): 14.4 µM | TGI (SNB-19 CNS): 34.7 µM | GI50 (MDA-MB-231 breast): 14 µM | TGI (MDA-MB-231 breast): 34.6 µM | GI50 (UACC-62 melanoma): 10.8 µM | TGI (UACC-62 melanoma): 26.2 µM | GI50 (TK-10 renal): 32.8 µM | TGI (TK-10 renal): > 100 µM | GI50 (SF-295 CNS): 16.7 µM | TGI (SF-295 CNS): 42.1 µM | GI50 (SF-268 CNS): 27.2 µM | TGI (SF-268 CNS): > 100 µM | GI50 (IGROV1 ovarian): 15.6 µM | TGI (IGROV1 ovarian): 63.7 µM | GI50 (MCF7 breast): 2.9 µM | TGI (MCF7 breast): > 100 µM | GI50 (RXF 393 renal): 9.57 µM | TGI (RXF 393 renal): 22.1 µM | GI50 (UACC-257 melanoma): 17.4 µM | TGI (UACC-257 melanoma): 68.4 µM | GI50 (SF-539 CNS): 17.8 µM | TGI (SF-539 CNS): 35 µM | GI50 (HCT-116 colon): 15 µM | TGI (HCT-116 colon): 61.7 µM | GI50 (SK-MEL-28 melanoma): 15.6 µM | TGI (SK-MEL-28 melanoma): 32.1 µM | GI50 (LOX IMVI melanoma): 12.2 µM | TGI (LOX IMVI melanoma): 27.3 µM | GI50 (HCT-15 colon): 6.96 µM | TGI (HCT-15 colon): 23.2 µM | GI50 (SW-620 colon): 12.1 µM | TGI (SW-620 colon): 48.4 µM | GI50 (MALME-3M melanoma): 16 µM | TGI (MALME-3M melanoma): 33.9 µM | GI50 (HT29 colon): 31.1 µM | TGI (HT29 colon): > 100 µM | GI50 (SNB-75 CNS): 13 µM | TGI (SNB-75 CNS): > 100 µM | GI50 (SN12C renal): 19.9 µM | TGI (SN12C renal): 52.5 µM | GI50 (ACHN renal): 22 µM | TGI (ACHN renal): 69.1 µM | GI50 (CCRF-CEM leukemia): 12.3 µM | TGI (CCRF-CEM leukemia): > 100 µM | GI50 (DU-145 prostate): 21 µM | TGI (DU-145 prostate): > 100 µM | GI50 (U251 CNS): 12 µM | TGI (U251 CNS): 26.8 µM | GI50 (T-47D breast): 6.12 µM | TGI (T-47D breast): > 100 µM | GI50 (COLO 205 colon): 17.6 µM | TGI (COLO 205 colon): 34.1 µM | GI50 (SK-OV-3 ovarian): 34.5 µM | TGI (SK-OV-3 ovarian): > 100 µM | GI50 (BT-549 breast): 13.8 µM | TGI (BT-549 breast): 35.7 µM | GI50 (M14 melanoma): 18.9 µM | TGI (M14 melanoma): 38.3 µM | GI50 (NCI-H23 lung): 13.7 µM | TGI (NCI-H23 lung): 42.3 µM | GI50 (A498 renal): 28.7 µM | TGI (A498 renal): 65.3 µM | GI50 (OVCAR-5 ovarian): 17.9 µM | TGI (OVCAR-5 ovarian): 38.1 µM | GI50 (SK-MEL-5 melanoma): 14.1 µM | TGI (SK-MEL-5 melanoma): 28 µM | GI50 (SR leukemia): 9.23 µM | TGI (SR leukemia): > 100 µM | GI50 (K-562 leukemia): 10.6 µM | TGI (K-562 leukemia): > 100 µM | GI50 (NCI-H460 lung): 15.2 µM | TGI (NCI-H460 lung): 38.1 µM | GI50 (PC-3 prostate): 23.9 µM | TGI (PC-3 prostate): > 100 µM | GI50 (HOP-62 NSCLC): 19.7 µM | TGI (HOP-62 NSCLC): 49.2 µM | GI50 (NCI-H522 lung): 15.6 µM | TGI (NCI-H522 lung): 38.9 µM | GI50 (OVCAR-8 ovarian): 16.6 µM | TGI (OVCAR-8 ovarian): 39.7 µM | GI50 (RPMI-8226 leukemia): 15.8 µM | TGI (RPMI-8226 leukemia): > 100 µM | GI50 (HS 578T breast): 30.4 µM | TGI (HS 578T breast): > 100 µM | GI50 (786-0 renal): 21.3 µM | TGI (786-0 renal): 76.4 µM | GI50 (HL-60(TB) leukemia): 12.7 µM | TGI (HL-60(TB) leukemia): > 100 µM | GI50 (OVCAR-4 ovarian): 23.6 µM | TGI (OVCAR-4 ovarian): > 100 µM | GI50 (UO-31 renal): 11 µM | TGI (UO-31 renal): 26.4 µM | GI50 (CAKI-1 renal): 14 µM | TGI (CAKI-1 renal): > 100 µM | GI50 (HCC-2998 colon): 14.9 µM | TGI (HCC-2998 colon): 28.8 µM | GI50 (MOLT-4 leukemia): 6.57 µM | TGI (MOLT-4 leukemia): > 100 µM | GI50 (NCI-H226 lung): 19.3 µM | TGI (NCI-H226 lung): 53 µM | GI50 (OVCAR-3 ovarian): 8.02 µM | TGI (OVCAR-3 ovarian): 30.4 µM | GI50 (HOP-92 NSCLC): 5.77 µM | TGI (HOP-92 NSCLC): 33.5 µM | GI50 (EKVX NSCLC): 26.2 µM | TGI (EKVX NSCLC): > 100 µM | GI50 (A549 NSCLC): 21.2 µM | TGI (A549 NSCLC): > 100 µM | GI50 (SK-MEL-2 melanoma): 16.3 µM | TGI (SK-MEL-2 melanoma): 35.7 µM | GI50 (KM12 colon): 12.5 µM | TGI (KM12 colon): 34.3 µM
